The subject of one series is IFNα/β mRNA. The format is cell-based.
In the next series the test system is influenza virus. The format is cell-based.
Series [1] can be described thus: in vitro. The conditions noted are these: African green monkey.
Series [2] is described as follows: in vitro. To be noted: human.
For series [3] the following is noted: rat, in vivo, 10 mg/kg; cited from earlier work.

Turning to `O=C(O[C@@H]1[C@@H](O)[C@H](Oc2cc(O)c(C(=O)CCc3ccccc3)c(O)c2)O[C@@H]2COC(=O)c3cc(O)c(O)c(O)c3-c3c(cc(O)c(O)c3O)C(=O)O[C@@H]12)c1cc(O)c(O)c(O)c1` [Compound 46, Thonningianin A], in the series with IFNα/β mRNA, the “effect on IFNα/β mRNA expression levels” value is “did not significantly affect”. For the same molecule, the “effect on influenza virus replication” value with influenza virus is “did not significantly affect”. The CC50 in “in vitro [1]” turned out to be 10.6 µM; in the series “in vitro [2]”, 20.2 µM. Further, in series [3], the t₁/₂ is given as 3.69 h.

These data come from article PMC11966994 (Emerging Microbes & Infections, 2025).
